Literature values in US20150110862A1, “Sweet Gum Fruit Extract as a Therapeutic Agent” (Board of Supervisors of Louisiana State University and …, priority 2007, published 2015).
≈ marks a conversion by molar mass, not a printed value.

How the values were obtained:
[1] = system: human prostate cancer PC3 cells; details: published articles
[2] = system: 39 human cancer cell lines; details: literature
[3] = system: two-stage carcinogenesis; details: literature
[4] = system: UVB-radiation-induced photocarcinogenesis; details: oral administration, literature

| Structure (SMILES) | IC50 against human prostate cancer PC3 cells (reported) [1] | cytotoxicity against 39 human cancer cell lines [2] | anti-tumor activity, two-stage carcinogenesis assay [3] | tumor incidence and tumor multiplicity vs control group [4] |
| --- | --- | --- | --- | --- |
| CC(=O)OC[C@]12CC[C@@H](O)C(C)(C)[C@@H]1CC[C@]1(C)[C@@H]2CC=C2[C@@H]3CC(C)(C)CC[C@]3(C(=O)O)CC[C@]21C [Terpenoid 1, 25-acetoxy-3α-hydroxyolean-12-en-28-oic acid] | 5.9 µg/mL (≈ 11.5 µM) | strong cytotoxicity | moderate inhibitory activities | – |
| C=C(C)[C@@H]1CC[C@]2(C(=O)O)CC[C@]3(C)[C@@H](CC[C@@H]4[C@@]5(C)CCC(=O)C(C)(C)[C@@H]5[C@H](O)C[C@]43C)[C@@H]12 [6β-hydroxy-3-oxolup-20 (29)-en-28-oic acid] | – | weaker activity | – | – |
| CC1(C)CCC2(C(=O)O)CCC3(C)C(=CC(=O)C4C5(C)CCC(=O)C(C)(C)C5CCC43C)C2C1 (centres unmarked) [3,11-dioxoolean-12-en-28-oic acid] | – | weaker activity | – | – |
| CC1(C)CCC2(C(=O)O)CCC3(C)C(=CCC4C5(CO)CCC(O)C(C)(C)C5CCC43C)C2C1 (stereo not drawn) [3α,25-dihydroxyolean-12-en-28-oic acid] | – | weaker activity | – | – |
| C=C(C)C1CCC2(C(=O)O)CCC3(C)C(CCC4C56CCC(O)(OC5)C(C)(C)C6CCC43C)C12 (stereo not drawn) [3β,25-epoxy-3α-hydroxylup-20(29)-en-28-oic acid] | – | – | moderate inhibitory activities | approximate halving of the tumor incidence and tumor multiplicity |
